Key:
[1] = In vitro Phase I metabolism in human liver microsomes; type: in vitro ADME
Method: The in vitro Phase I metabolism of hydronidone was evaluated by incubating human liver microsomes with hydronidone for 60 minutes.

human CYP 1A2 = molecular target: T1, human CYP 1A2 (Homo sapiens, UniProt P05177); experiment: biochemical
T1 sequence (P05177 1-516): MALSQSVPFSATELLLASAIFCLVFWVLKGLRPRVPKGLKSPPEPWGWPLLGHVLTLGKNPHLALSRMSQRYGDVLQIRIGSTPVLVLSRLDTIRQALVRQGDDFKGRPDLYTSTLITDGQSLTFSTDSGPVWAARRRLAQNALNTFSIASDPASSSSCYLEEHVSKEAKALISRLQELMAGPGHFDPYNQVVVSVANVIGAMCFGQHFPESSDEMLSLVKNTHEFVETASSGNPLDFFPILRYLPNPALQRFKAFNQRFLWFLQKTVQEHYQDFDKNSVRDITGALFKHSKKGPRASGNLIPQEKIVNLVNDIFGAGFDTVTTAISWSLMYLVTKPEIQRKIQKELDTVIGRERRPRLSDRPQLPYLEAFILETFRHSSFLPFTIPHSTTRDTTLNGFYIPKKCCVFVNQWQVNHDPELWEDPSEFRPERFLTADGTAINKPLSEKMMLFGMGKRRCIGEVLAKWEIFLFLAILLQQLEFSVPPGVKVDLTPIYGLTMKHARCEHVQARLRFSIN
Method: In vitro study investigated whether Hydronidone is inhibitor for human cytochrome P450 (CYP450). The effects of different Hydronidone concentrations were determined by the fluorescence intensity of metabolic substrates of CYP1A2, 2C9, 2C19, 2 D6 and 3A4, produced under the effect of the relevant enzyme. The respective IC50 value were calculated in the event of observed inhibition with hydronidone.

[2] = Crossover study of food effect on safety, tolerability and PK of a single oral dose (Example 8); type: in vivo, human
Method: This was a randomized, open-label, 2-period, crossover PK study of effects of food on safety, tolerability, and PK of single oral doses of Hydronidone in healthy Chinese subjects. The PK parameters of the M3 and M4 metabolites of Hydronidone, in presence or absence of food were also determined.
Twelve healthy Chinese subjects were enrolled, dosed and in this inpatient study. They were randomly assigned in two groups/periods to receive a single oral 600 mg (3×200 mg) dose of Hydronidone either under fasted, or fed (high fat) conditions. Within each treatment period, PK blood samples were collected at: 0 (pre-dose), 10 min, 20 min, 30 min, 40 min, 1 hr, 1.5 hr, 2 hr, 3 hr, 4 hr, 5 hr, 6 hr, 8 hr, 10 hr, 12 hr, 16 hr, and 24 hr, and 48 hr post-dose. The wash-out period between the two periods in this trial was 48 hours.

[3] = Parallel group PK study of multiple ascending oral doses (Example 9); type: in vivo, human
Method: This was randomized, open-label, parallel group PK study of multiple ascending oral doses of Hydronidone in healthy Chinese subjects.
In this study, ascending oral doses of Hydronidone of 200 mg, 400 mg, and 600 mg TID, were administered to 27 healthy subjects (15 males and 12 females) divided into 3 groups (9 subjects/group), for four (4) consecutive days. This was an inpatient study. Hydronidone was administered under fasted conditions. Blood and urine samples were collected for PK assessments. The PK assessments were performed upon single (after the first dose) and multiple dosing. Standard safety evaluations were also performed including physical examination, ECG, hematology, serum biochemistry and urinalysis.

[4] = Safety, tolerability and PK of single doses, 7-day and 4-week multiple oral doses (Example 10); type: in vivo, human
Method: This was a randomized, open-label, study of safety, tolerability and PK of single doses, 7-day, and 4-week multiple oral doses of Hydronidone in healthy Chinese subjects.
This study was conducted in three parts. In the first part single escalating doses of Hydronidone of 15 mg, 30 mg, 60 mg, 90 mg, and 120 mg/day were administered to six (6), eight (8), eight (8), six (6), six (6) healthy subjects, respectively, as per the Fibonacci Escalating Method (modified Fibonacci method). […] As no adverse experiences were reported at any dose level, the two highest single dose levels of 90 mg and 120 mg of Hydronidone were selected for the second part of the study, and were administered TID to 6 subjects each, for seven consecutive days. Thus, total daily doses of Hydronidone in these two dose groups were 270 mg and 360 mg, respectively. All subjects completed the seven-day dosing regimen without premature discontinuation. No clinically-significant abnormal changes in vital signs, ECG and laboratory test results of each group of subjects were found. In the third part of the study, six (6) subjects were given oral Hydronidone at a daily dose of 60 mg TID (total daily dose of 180 mg) for four (4) consecutive weeks. All subjects completed the seven-day dosing regimen without premature discontinuation. No clinically-significant abnormal changes in vital signs, ECG and laboratory test results of each group of subjects were found.
PK assessments were performed in each part of the study. In the single part of the study, the PK parameters also included food effect assessment.

liver fibrosis = experiment: HSA-induced and DMN-induced liver fibrosis in rats; type: in vivo
Method: Hydronidone anti-fibrotic effects were evaluated in several animal models of liver fibrosis, such as human serum albumin (HSA)-induced liver fibrosis in rats, dimethyl nitrosamine (DMN)-induced liver fibrosis in rats, and carbon tetrachloride (CCl4)-induced liver fibrosis in mice. […] In the CCl4-induced liver fibrosis in mice, Hydronidone effects were the most prominent at the doses of 3-10 mg/kg/day, although some effects were also shown at the dose of 1 mg/kg/day. In some embodiments, this dose range corresponds to human equivalent dose (HED) range of 15-50 mg. […] The HED of these rat doses are in the range of 100-2,400 mg which were all tested as safe in Phase I clinical trials of Hydronidone, with the 100 mg dose being […] the maximum daily dose of 360 mg (administered as 120 mg TID) administered to the subjects with liver fibrosis due to chronic Hepatitis B in the ongoing Phase II clinical study of efficacy and safety of Hydronidone in China.

[5] = In vitro drug-drug interaction with Entecavir and Lamivudine in human liver microsomes
Method: Entecavir and Lamivudine, were used concomitantly with Hydronidone, or individually, in the in vitro drug interaction experiments, in respective concentrations of each of 1.5 mM.

[6] = single oral 600 mg dose of Hydronidone, fed vs fasted

## Cc1ccc(=O)n(-c2ccc(O)cc2)c1 [Hydronidone, N-(4-hydroxyphenyl)-5-Methyl-2-pyridone]
[1]
  formation of metabolites: no formation of metabolites was observed
Human CYP 1A2
  IC50: > 100 µM
[2]; [6]
  effect of food (high-fat meal) on Cmax: decreasing their Cmax values
  effect of food (high-fat meal) on rate of absorption: delayed the rate of absorption
[2]; single oral 600 mg dose, fed or fasted
  safety and tolerability: safe and well tolerated, without SAEs or AEs reported
[3]; 200 mg TID and 400 mg TID multiple-dose groups, mild
  number of adverse events reported: 7 adverse events
[3]; 200-600 mg TID
  dose proportionality of exposure: increasing with the dose but without strict dose proportionality
[3]; 200-600 mg TID, 4 days
  deaths and SAEs: No deaths nor SAEs were reported
  safety and tolerability: safe and well tolerated
[3]; across dose levels
  exposure by sex: Male subjects had lower exposures as compared to female subjects
[3]; both sexes, human, plasma, oral, 200, 400, 600 mg TID, fasted, healthy Chinese subjects
  Tmax: ~60 min
[3]; single vs multiple dosing, TID for 4 days
  accumulation: no obvious accumulation
[3]; upon single dosing, parent drug and major metabolites
  plasma level at 36 hrs. post-dose: undetectable
[4]; healthy subjects
  maximum tolerated single oral dose: 120 mg
[4]; human, in vivo, po, 120 mg
  Tmax: 36 ± 29.4 min
[4]; in vivo
  QTc interval: no abnormal prolongation of the QTc interval
  subjects with increase in T-BIL and D-BIL post-dose values: Three
Liver fibrosis; HSA- and DMN-induced liver fibrosis in rats
  anti-fibrotic effect (level of fibrosis, hydroxyproline, ALT, AST): potent anti-fibrotic effect
Liver fibrosis; rats
  anti-fibrotic effect compared with silymarin extract (positive control): comparable or more potent than silymarin extract
Liver fibrosis; rats, depending on the model
  dose range in which anti-fibrotic effects were shown: 10 to 250 mg/kg/day
[5]
  role of liver metabolism as metabolic pathway: the liver metabolism is not the main Hydronidone metabolic pathway
